Measurements: patent publication US9890194B2, “Epitope and its use” (W[…] BADAŃEIT+ SP. Z O.O., priority 2012, dated 2018)

Key:
[1] = system: antibodies present in umbilical blood sera 1H-9H (IgG); test: ELISA of peptides synthesized on HPM-pins with a mixture of 9 umbilical blood sera (1H-9H); format: binding, human; conditions: mixture of umbilical sera 1H-9H; 29 overlapping twelve amino-acid peptides of Table 1 on HPM-pins
Source text: Peptides representing the bioinformatically predicted regions were synthesized using an NCP kit with 96 hydroxypropylmethacrylate (HPM) pins (MIMOTOPES, Clayton, Victoria, Australia) according to the manufacturer's specifications (Carter, J.M. (1994) An epitope mapping of a protein using the Geysen (PEPSCAN) procedure. Methods Mol Biol 36: 207-223). As the sixth, control, peptide we synthesised a fragment corresponding to the N-terminal region of ompC (AEVYNKDGNKLD-pin (SEQ ID NO: 12)).
After the completed synthesis, we performed initial reactivity tests for the individual peptides, using a standard ELISA test. The ELISA was performed in a mixture of 9 different umbilical blood sera (1H-9H) according to the following scheme: • a. Pin equilibration in TBS-T. • b. Blocking of free sites on the pins using 1% BSA in TBS-T • c. Incubation with umbilical sera at a dilution of 1:500 in a solution of 1% BSA in TBS-T buffer • d. Rinsing with TBS-T buffer • e. Incubation with secondary antibodies, conjugated Anti-Human IgG (Fc)-AP (Promega) • f. Rinsing with TBS-T • g. Reaction of AP with the substrate pNPP (p-Nitrophenyl Phosphate, Sigma) and absorbance measurement at 405 nm • h. Dissociation of proteins/antibodies from peptides synthesized on HPM-pins. […]

[2] = system: antibodies present in human umbilical blood sera; test: Immunological activity of truncated and substituted peptides derived from RYDERY with umbilical serum; format: binding; conditions: FIG. 4
Source text: Unexpectedly it was shown that the immunological activity of the RYDERY peptide (SEQ ID NO: 2) is not affected by the removal of amino-acids in positions P+1 and P+2, nor in P−1, […]. The removal of amino-acids in positions P1 or P6, and in the subsequent positions (P2, P3 or P5, P4) caused a complete loss of activity. Likewise, a loss of immunological activity was caused by an exchange of residues at positions P1, P2 and P5. The latter amino-acids must remain unchanged in the final form of the peptide vaccine. Positions P3, P4 and P6 are less restrictive. In this case native amino-acids may be substituted by a series of other residues without any significant loss of immunological activity (FIG. 4). This property of the epitope facilitates the synthesis of a peptide less susceptible to enzymatic hydrolysis, and a higher antigenicity.
Furthermore, it was unexpectedly shown that an alteration of amino-acid D or E for Q yields an increased reactivity with umbilical serum (FIG. 5).

Substance	binding of antibodies in umbilical sera by loop V peptides [1]	immunological activity of peptides derived from RYDERY (removal or exchange of residues) [2]
RYDERY	shortest active portion of the epitope	
YDERY		no activity
